Laboratory results taken from PubChem BioAssay (NCI).
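Interpolation was linear, between the two tested concentrations surrounding the appropriate level; five concentrations were tested over 48 hours in 96-well plates. GI50: concentration for 50% inhibition of growth. Definition used: TGI = concentration required for complete inhibition of growth.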

Key:
Assay in all cases: NCI anticancer screen, dose series, 48 h
[1] = system: TK-10 renal
[2] = system: OVCAR-3 ovarian
[3] = system: NCI/ADR-RES ovarian
[4] = system: IGROV1 ovarian
[5] = system: COLO 205 colon
[6] = system: NCI-H460 lung
[7] = system: RXF 393 renal
[8] = system: M14 melanoma
[9] = system: MALME-3M melanoma
[10] = system: SF-539 CNS
[11] = system: PC-3 prostate
[12] = system: MDA-MB-435
[13] = system: SK-MEL-2 melanoma
[14] = system: OVCAR-8 ovarian
[15] = system: HOP-92 NSCLC
[16] = system: K-562 leukemia
[17] = system: T-47D breast
[18] = system: A498 renal
[19] = system: RPMI-8226 leukemia
[20] = system: KM12 colon
[21] = system: SNB-19 CNS
[22] = system: HCT-15 colon
[23] = system: MDA-MB-231 breast
[24] = system: NCI-H23 lung
[25] = system: MOLT-4 leukemia
[26] = system: SF-295 CNS
[27] = system: SK-MEL-5 melanoma
[28] = system: OVCAR-4 ovarian
[29] = system: HCC-2998 colon
[30] = system: MCF7 breast
[31] = system: HCT-116 colon
[32] = system: SR leukemia
[33] = system: U251 CNS
[34] = system: SF-268 CNS
[35] = system: NCI-H226 lung
[36] = system: CAKI-1 renal
[37] = system: UO-31 renal
[38] = system: HOP-62 NSCLC
[39] = system: OVCAR-5 ovarian
[40] = system: A549 NSCLC
[41] = system: HL-60(TB) leukemia
[42] = system: SK-MEL-28 melanoma
[43] = system: EKVX NSCLC
[44] = system: SNB-75 CNS
[45] = system: NCI-H522 lung
[46] = system: UACC-257 melanoma
[47] = system: SN12C renal
[48] = system: CCRF-CEM leukemia
[49] = system: DU-145 prostate
[50] = system: SW-620 colon

For `C#C[C@]1(O)CC[C@H]2[C@@H]3CC=C4c5sc(-c6ccc(O)c(O)c6)nc5CC[C@]4(C)[C@H]3CC[C@@]21C`, the GI50 [1] was 9.21 µM, the TGI [1] was over 100 µM and the GI50 [2] was 2.92 µM. The TGI [2] was 16 µM, the GI50 [3] was 2.81 µM and the TGI [3] was over 100 µM. For the same molecule, the GI50 [4] was 4.18 µM, the TGI [4] was over 100 µM and the GI50 [5] was 2.42 µM. It also gave a TGI [5] of 5.81 µM, a GI50 [6] of 3.13 µM and a TGI [6] of 30.8 µM. The GI50 [7] was 0.157 µM, the TGI [7] was 0.658 µM and the GI50 [8] was 2.09 µM. It also gave a TGI [8] of 5.87 µM, a GI50 [9] of 1.63 µM and a TGI [9] of 4.8 µM. The GI50 [10] was 0.333 µM, the TGI [10] was 1.67 µM and the GI50 [11] was 0.833 µM. It also gave a TGI [11] of over 100 µM, a GI50 [12] of 3.11 µM and a TGI [12] of 13.2 µM. The GI50 [13] was 2.93 µM, the TGI [13] was 12 µM and the GI50 [14] was 3.3 µM. For the same molecule, the TGI [14] was 14.5 µM, the GI50 [15] was 3.78 µM and the TGI [15] was over 100 µM. It also gave a GI50 [16] of 1.21 µM, a TGI [16] of over 100 µM and a GI50 [17] of 3.27 µM. It also gave a TGI [17] of 44.7 µM, a GI50 [18] of 1.76 µM and a TGI [18] of 4.23 µM. The GI50 [19] was 0.348 µM, the TGI [19] was over 100 µM and the GI50 [20] was 2.97 µM. The TGI [20] was 55 µM, the GI50 [21] was 2.09 µM and the TGI [21] was 22.1 µM. The GI50 [22] was 1.26 µM, the TGI [22] was 4.25 µM and the GI50 [23] was 2.97 µM. The TGI [23] was over 100 µM, the GI50 [24] was 2.76 µM and the TGI [24] was over 100 µM. The GI50 [25] was 0.435 µM, the TGI [25] was over 100 µM and the GI50 [26] was 0.303 µM. It also gave a TGI [26] of 1.22 µM, a GI50 [27] of 2.13 µM and a TGI [27] of 5.15 µM. It also gave a GI50 [28] of 3.55 µM, a TGI [28] of over 100 µM and a GI50 [29] of 3.67 µM. The TGI [29] was 14.7 µM, the GI50 [30] was 1.09 µM and the TGI [30] was 6.06 µM. The GI50 [31] was 1.23 µM, the TGI [31] was 2.87 µM and the GI50 [32] was 0.659 µM. For the same molecule, the TGI [32] was over 100 µM, the GI50 [33] was 0.68 µM and the TGI [33] was 4.42 µM. It also gave a GI50 [34] of 2.47 µM, a TGI [34] of over 100 µM and a GI50 [35] of 2.22 µM. For the same molecule, the TGI [35] was over 100 µM, the GI50 [36] was 2.98 µM and the TGI [36] was 15.1 µM. For the same molecule, the GI50 [37] was 1.43 µM, the TGI [37] was 12.9 µM and the GI50 [38] was 3.91 µM. It also gave a TGI [38] of over 100 µM, a GI50 [39] of 3.04 µM and a TGI [39] of over 100 µM. The GI50 [40] was 3.33 µM, the TGI [40] was over 100 µM and the GI50 [41] was 1.77 µM. The TGI [41] was over 100 µM, the GI50 [42] was 1.39 µM and the TGI [42] was 4.19 µM. The GI50 [43] was 2.14 µM, the TGI [43] was 55 µM and the GI50 [44] was 0.339 µM. The TGI [44] was 9.95 µM, the GI50 [45] was 1.69 µM and the TGI [45] was 3.64 µM. It also gave a GI50 [46] of 2 µM, a TGI [46] of 5.91 µM and a GI50 [47] of 3.03 µM. The TGI [47] was over 100 µM, the GI50 [48] was 0.764 µM and the TGI [48] was over 100 µM. It also gave a GI50 [49] of 3.03 µM, a TGI [49] of over 100 µM and a GI50 [50] of 2.64 µM. The TGI [50] was over 100 µM.
